Measurements from patent publication US11939298B1, “5-(4,5-bis(4-bromophenyl)-2-(4-chlorophenyl)-1H-imidazol-1-yl)pentanoic acid as an antimicrobial compound” (KING FAISAL UNIVERSITY, priority 2023, dated 2024).

Columns and labels:
Assay type in all cases: cell-based
Staphylococcus aureus = assay: Agar plate disc-diffusion, antibacterial, Staphylococcus aureus; conditions: nutrient agar, 37° C., 48 hours, DMSO zone subtracted; for inhibition zone, Staphylococcus aureus, A: A = concentration of comp. = 10,000 μL
Experimental: (§1) The agar plate disc-diffusion method was applied. […] The discs were then placed onto the surface of agar plates (nutrient agar for bacteria and Sabouraud's dextrose agar for fungi) seeded with the test organism. Each plate contained 15 mL of the agar medium, previously seeded with 0.2 mL of the broth culture of each organism pregrown for 18 hours. The plates were incubated at 37° C. for 48 hours, and 72 hours for fungi. The inhibition zones was measured in mm. Discs impregnated with DMSO were used as a control, and its inhibition zone was subtracted from the tested compound actual inhibition zone.
(§2) Their antibacterial screened against gram positive bacteria namely Bacillus cereus and Staphylococcus aureus and gram-negative bacterial strains namely Pseudomonas aeruginosa and Escherichia coli, while their antifungal activity screened against Aspergillus flavus and Chrysosporium keratinophilum as shown in tables 1 and 2 using ciprofloxacin as a reference.

Aspergillus flavus = assay: Agar plate disc-diffusion, antifungal, Aspergillus flavus; conditions: Sabouraud's dextrose agar, 37° C., 72 hours, DMSO zone subtracted; for inhibition zone, Aspergillus flavus, B: B = concentration of comp. = 30,000 μL
Experimental: as §1, §2

Pseudomonas aeruginosa = assay: Agar plate disc-diffusion, antibacterial, Pseudomonas aeruginosa; conditions: nutrient agar, 37° C., 48 hours, DMSO zone subtracted
Experimental: as §1, §2

[1] = test system: Chrysosporium keratinophilum; assay: Agar plate disc-diffusion, antifungal, Chrysosporium keratinophilum; conditions: Sabouraud's dextrose agar, 37° C., 72 hours, DMSO zone subtracted
Experimental: The agar plate disc-diffusion method was applied. Sterilized filter papers (6 mm in diameter) were wetted with 10 μL of a solution of 5-(4,5-bis(4-bromophenyl)-2-(4-chlorophenyl)-1H-imidazol-1-yl)pentanoic acid (V) to be tested, containing 10 mg/mL in DMSO, and the discs were allowed to air dry. The discs were then placed onto the surface of agar plates (nutrient agar for bacteria and Sabouraud's dextrose agar for fungi) seeded with the test organism. Each plate contained 15 mL of the agar medium, previously seeded with 0.2 mL of the broth culture of each organism pregrown for 18 hours. The plates were incubated at 37° C. for 48 hours, and 72 hours for fungi. The inhibition zones was measured in mm. Discs impregnated with DMSO were used as a control, and its inhibition zone was subtracted from the tested compound actual inhibition zone.
as §2

Escherichia coli = assay: Agar plate disc-diffusion, antibacterial, Escherichia coli; conditions: nutrient agar, 37° C., 48 hours, DMSO zone subtracted
Experimental: as §1, §2

Bacillus cereus = assay: Agar plate disc-diffusion, antibacterial, Bacillus cereus; conditions: nutrient agar, 37° C., 48 hours, DMSO zone subtracted
Experimental: as §1, §2

[2] = B = concentration of comp. = 30,000 μL
[3] = C = concentration of comp. = 50,000 μL
[4] = A = concentration of comp. = 10,000 μL

| SMILES | inhibition zone, Staphylococcus aureus, A (Staphylococcus aureus) | inhibition zone, Aspergillus flavus, B (Aspergillus flavus) | inhibition zone, Pseudomonas aeruginosa, A (Pseudomonas aeruginosa; A = concentration of comp. = 10 mg/mL) | inhibition zone, Pseudomonas aeruginosa, B (Pseudomonas aeruginosa; [2]) | inhibition zone, Pseudomonas aeruginosa, C (Pseudomonas aeruginosa; [3]) | inhibition zone, Chrysosporium keratinophilum, A [1, 4] | inhibition zone, Chrysosporium keratinophilum, B [1, 2] | inhibition zone, Chrysosporium keratinophilum, C [1, 3] | inhibition zone, Escherichia coli, A (Escherichia coli; [4]) | inhibition zone, Escherichia coli, B (Escherichia coli; [2]) | inhibition zone, Escherichia coli, C (Escherichia coli; [3]) | inhibition zone, Staphylococcus aureus, B (Staphylococcus aureus; [2]) | inhibition zone, Staphylococcus aureus, C (Staphylococcus aureus; [3]) | inhibition zone, Aspergillus flavus, A (Aspergillus flavus; A = concentration of comp. = 10,000 μg/mL) | inhibition zone, Aspergillus flavus, C (Aspergillus flavus; [3]) | inhibition zone, Bacillus Cereus, A (Bacillus cereus; [4]) | inhibition zone, Bacillus Cereus, B (Bacillus cereus; [2]) | inhibition zone, Bacillus Cereus, C (Bacillus cereus; [3]) |
| --- | --- | --- | --- | --- | --- | --- | --- | --- | --- | --- | --- | --- | --- | --- | --- | --- | --- | --- |
| O=C(O)c1cn(C2CC2)c2cc(N3CCNCC3)c(F)cc2c1=O [Cip., ciprofloxacin, reference compound] | 42 mm | 32 mm |  |  |  |  |  |  |  |  |  |  |  |  |  |  |  |  |
| O=C(O)CCCCn1c(-c2ccc(Cl)cc2)nc(-c2ccc(Br)cc2)c1-c1ccc(Br)cc1 [V, 5-(4,5-bis(4-bromophenyl)-2-(4-chlorophenyl)-1H-imidazol-1-yl)pentanoic acid] | 16 mm | 23 mm | 24 mm | 30 mm | 44 mm | 26 mm | 27 mm | 44 mm | 28 mm | 36 mm | 51 mm | 21 mm | 29 mm | 18 mm | 31 mm | 24 mm | 26 mm | 38 mm |
